Tests used:
MDA-MB-231 = assay: Anticancer activity against human MDA-MB-231 cells assessed as cell growth inhibition at 10 uM incubated for 48 hrs by SRB assay relative to control; type: functional; conditions: read-out: GI
Malme-3M = assay: Anticancer activity against human Malme-3M cells assessed as cell growth inhibition at 10 uM incubated for 48 hrs by SRB assay relative to control; type: functional; conditions: read-out: GI
TK-10 = assay: Anticancer activity against human TK-10 cells assessed as cell growth inhibition at 10 uM incubated for 48 hrs by SRB assay relative to control; type: functional; conditions: read-out: GI
RPMI-8226 = assay: Anticancer activity against human RPMI-8226 cells assessed as cell growth inhibition at 10 uM incubated for 48 hrs by SRB assay relative to control; type: functional; conditions: read-out: GI
OVCAR-4 = assay: Anticancer activity against human OVCAR-4 cells assessed as cell growth inhibition at 10 uM incubated for 48 hrs by SRB assay relative to control; type: functional; conditions: read-out: GI
NCI-H522 = assay: Anticancer activity against human NCI-H522 cells assessed as cell growth inhibition at 10 uM incubated for 48 hrs by SRB assay relative to control; type: functional; conditions: read-out: GI
OVCAR-3 = assay: Anticancer activity against human OVCAR-3 cells assessed as cell growth inhibition at 10 uM incubated for 48 hrs by SRB assay relative to control; type: functional; conditions: read-out: GI
NCI-H460 = assay: Anticancer activity against human NCI-H460 cells assessed as cell growth inhibition at 10 uM incubated for 48 hrs by SRB assay relative to control; type: functional; conditions: read-out: GI
SN12C = assay: Anticancer activity against human SN12C cells assessed as cell growth inhibition at 10 uM incubated for 48 hrs by SRB assay relative to control; type: functional; conditions: read-out: GI
K562 = assay: Anticancer activity against human K562 cells assessed as cell growth inhibition at 10 uM incubated for 48 hrs by SRB assay relative to control; type: functional; conditions: read-out: GI
HCT-15 = assay: Anticancer activity against human HCT-15 cells assessed as cell growth inhibition at 10 uM incubated for 48 hrs by SRB assay relative to control; type: functional; conditions: read-out: GI
HT-29 = assay: Anticancer activity against human HT-29 cells assessed as cell growth inhibition at 10 uM incubated for 48 hrs by SRB assay relative to control; type: functional; conditions: read-out: GI
SK-MEL-2 = assay: Anticancer activity against human SK-MEL-2 cells assessed as cell growth inhibition at 10 uM incubated for 48 hrs by SRB assay relative to control; type: functional; conditions: read-out: GI
KM12 = assay: Anticancer activity against human KM12 cells assessed as cell growth inhibition at 10 uM incubated for 48 hrs by SRB assay relative to control; type: functional; conditions: read-out: GI
U-251 = assay: Anticancer activity against human U-251 cells assessed as cell growth inhibition at 10 uM incubated for 48 hrs by SRB assay relative to control; type: functional; conditions: read-out: GI
NCI-H23 = assay: Anticancer activity against human NCI-H23 cells assessed as cell growth inhibition at 10 uM incubated for 48 hrs by SRB assay relative to control; type: functional; conditions: read-out: GI
OVCAR-5 = assay: Anticancer activity against human OVCAR-5 cells assessed as cell growth inhibition at 10 uM incubated for 48 hrs by SRB assay relative to control; type: functional; conditions: read-out: GI
LOX IMVI = assay: Anticancer activity against human LOX IMVI cells assessed as cell growth inhibition at 10 uM incubated for 48 hrs by SRB assay relative to control; type: functional; conditions: read-out: GI
SF-539 = assay: Anticancer activity against human SF-539 cells assessed as cell growth inhibition at 10 uM incubated for 48 hrs by SRB assay relative to control; type: functional; conditions: read-out: GI
SNB-19 = assay: Anticancer activity against human SNB-19 cells assessed as cell growth inhibition at 10 uM incubated for 48 hrs by SRB assay relative to control; type: functional; conditions: read-out: GI
Carbonic anhydrase 9 = Carbonic anhydrase 9 (Homo sapiens, UniProt Q16790); assay: Inhibition of recombinant human CA 9 preincubated for 15 mins by phenol red dye based stopped flow CO2 hydration assay
786-0 = assay: Anticancer activity against human 786-0 cells assessed as cell growth inhibition at 10 uM incubated for 48 hrs by SRB assay relative to control; type: functional; conditions: read-out: GI
MDA-MB-468 = assay: Anticancer activity against human MDA-MB-468 cells assessed as cell growth inhibition at 10 uM incubated for 48 hrs by SRB assay relative to control; type: functional; conditions: read-out: GI
EKVX = assay: Anticancer activity against human EKVX cells assessed as cell growth inhibition at 10 uM incubated for 48 hrs by SRB assay relative to control; type: functional; conditions: read-out: GI
T47D = assay: Anticancer activity against human T47D cells assessed as cell growth inhibition at 10 uM incubated for 48 hrs by SRB assay relative to control; type: functional; conditions: read-out: GI
A498 = assay: Anticancer activity against human A498 cells assessed as cell growth inhibition at 10 uM incubated for 48 hrs by SRB assay relative to control; type: functional; conditions: read-out: GI
SNB-75 = assay: Anticancer activity against human SNB-75 cells assessed as cell growth inhibition at 10 uM incubated for 48 hrs by SRB assay relative to control; type: functional; conditions: read-out: GI
PC-3 = assay: Anticancer activity against human PC-3 cells assessed as cell growth inhibition at 10 uM incubated for 48 hrs by SRB assay relative to control; type: functional; conditions: read-out: GI
MCF7 = assay: Anticancer activity against human MCF7 cells assessed as cell growth inhibition at 10 uM incubated for 48 hrs by SRB assay relative to control; type: functional; conditions: read-out: GI
HOP-92 = assay: Anticancer activity against human HOP-92 cells assessed as cell growth inhibition at 10 uM incubated for 48 hrs by SRB assay relative to control; type: functional; conditions: read-out: GI
MOLT-4 = assay: Anticancer activity against human MOLT-4 cells assessed as cell growth inhibition at 10 uM incubated for 48 hrs by SRB assay relative to control; type: functional; conditions: read-out: GI
HOP-62 = assay: Anticancer activity against human HOP-62 cells assessed as cell growth inhibition at 10 uM incubated for 48 hrs by SRB assay relative to control; type: functional; conditions: read-out: GI
RXF 393 = assay: Anticancer activity against human RXF 393 cells assessed as cell growth inhibition at 10 uM incubated for 48 hrs by SRB assay relative to control; type: functional; conditions: read-out: GI
SF-268 = assay: Anticancer activity against human SF-268 cells assessed as cell growth inhibition at 10 uM incubated for 48 hrs by SRB assay relative to control; type: functional; conditions: read-out: GI
SK-MEL-5 = assay: Anticancer activity against human SK-MEL-5 cells assessed as cell growth inhibition at 10 uM incubated for 48 hrs by SRB assay relative to control; type: functional; conditions: read-out: GI
UO-31 = assay: Anticancer activity against human UO-31 cells assessed as cell growth inhibition at 10 uM incubated for 48 hrs by SRB assay relative to control; type: functional; conditions: read-out: GI
A549 = assay: Anticancer activity against human A549 cells assessed as cell growth inhibition at 10 uM incubated for 48 hrs by SRB assay relative to control; type: functional; conditions: read-out: GI
Hs-578T = assay: Anticancer activity against human Hs-578T cells assessed as cell growth inhibition at 10 uM incubated for 48 hrs by SRB assay relative to control; type: functional; conditions: read-out: GI
COLO 205 = assay: Anticancer activity against human COLO 205 cells assessed as cell growth inhibition at 10 uM incubated for 48 hrs by SRB assay relative to control; type: functional; conditions: read-out: GI
OVCAR-8 = assay: Anticancer activity against human OVCAR-8 cells assessed as cell growth inhibition at 10 uM incubated for 48 hrs by SRB assay relative to control; type: functional; conditions: read-out: GI

SMILES | inhibition of growth at 10 µM (MDA-MB-231) [%] | inhibition of growth at 10 µM (Malme-3M) [%] | inhibition of growth at 10 µM (TK-10) [%] | inhibition of growth at 10 µM (RPMI-8226) [%] | inhibition of growth at 10 µM (OVCAR-4) [%] | inhibition of growth at 10 µM (NCI-H522) [%] | inhibition of growth at 10 µM (OVCAR-3) [%] | inhibition of growth at 10 µM (NCI-H460) [%] | inhibition of growth at 10 µM (SN12C) [%] | inhibition of growth at 10 µM (K562) [%] | inhibition of growth at 10 µM (HCT-15) [%] | inhibition of growth at 10 µM (HT-29) [%] | inhibition of growth at 10 µM (SK-MEL-2) [%] | inhibition of growth at 10 µM (KM12) [%] | inhibition of growth at 10 µM (U-251) [%] | inhibition of growth at 10 µM (NCI-H23) [%] | inhibition of growth at 10 µM (OVCAR-5) [%] | inhibition of growth at 10 µM (LOX IMVI) [%] | inhibition of growth at 10 µM (SF-539) [%] | inhibition of growth at 10 µM (SNB-19) [%] | further results
NS(=O)(=O)c1ccc(Nc2nc(N/N=C/c3ccccc3)nc(Nc3ccccc3)n2)cc1 | 16 | 22 | < 10 | 41 | 15 | < 10 | 29 | 31 | 20 | 40 | 13 | 37 | 10 | 26 | 14 | 13 | < 10 | 35 | 23 | < 10 | Ki (Carbonic anhydrase 9): 30.3 nM; inhibition of growth at 10 µM (786-0): 33%; inhibition of growth at 10 µM (MDA-MB-468): 19%; inhibition of growth at 10 µM (EKVX): 29%; inhibition of growth at 10 µM (T47D): 37%; inhibition of growth at 10 µM (A498): 42%; inhibition of growth at 10 µM (SNB-75): < 10%; inhibition of growth at 10 µM (PC-3): 31%; inhibition of growth at 10 µM (MCF7): 46%; inhibition of growth at 10 µM (HOP-92): 27%; inhibition of growth at 10 µM (MOLT-4): 58%; inhibition of growth at 10 µM (HOP-62): < 10%; inhibition of growth at 10 µM (RXF 393): 87%; inhibition of growth at 10 µM (SF-268): 19%; inhibition of growth at 10 µM (SK-MEL-5): 35%; inhibition of growth at 10 µM (UO-31): 34%; inhibition of growth at 10 µM (A549): 28%; inhibition of growth at 10 µM (Hs-578T): 43%; inhibition of growth at 10 µM (COLO 205): 14%; inhibition of growth at 10 µM (OVCAR-8): 20%
Cc1ccc(/C=N/Nc2nc(Nc3ccccc3)nc(Nc3ccc(S(N)(=O)=O)cc3)n2)cc1 | 26 | < 10 | < 10 | 56 | 30 | 10 | 39 | 45 | 17 | 43 | 46 | 45 | 22 | 34 | 37 | 23 | 15 | 45 | 55 | 22 | Ki (Carbonic anhydrase 9): 26.9 nM; inhibition of growth at 10 µM (786-0): 53%; inhibition of growth at 10 µM (MDA-MB-468): 35%; inhibition of growth at 10 µM (EKVX): 21%; inhibition of growth at 10 µM (T47D): 45%; inhibition of growth at 10 µM (A498): 45%; inhibition of growth at 10 µM (SNB-75): 32%; inhibition of growth at 10 µM (PC-3): 33%; inhibition of growth at 10 µM (MCF7): 73%; inhibition of growth at 10 µM (HOP-92): > 10%; inhibition of growth at 10 µM (MOLT-4): 59%; inhibition of growth at 10 µM (HOP-62): 13%; inhibition of growth at 10 µM (RXF 393): 102%; inhibition of growth at 10 µM (SF-268): 12%; inhibition of growth at 10 µM (SK-MEL-5): 23%; inhibition of growth at 10 µM (UO-31): 31%; inhibition of growth at 10 µM (A549): 16%; inhibition of growth at 10 µM (Hs-578T): 37%; inhibition of growth at 10 µM (COLO 205): 16%; inhibition of growth at 10 µM (OVCAR-8): 30%

— ChEMBL document CHEMBL5154747, “Discovery of new carbonic anhydrase IX inhibitors as anticancer agents by toning the hydrophobic and hydrophilic rims of the active site to encounter the dual-tail approach” (Eur J Med Chem, 2022)
